Laboratory results taken from ChEMBL document CHEMBL4800722, “Data for DCP probe BI 605906” (2021).

Key:
[1] = molecular target: Mitogen-activated protein kinase kinase kinase 20 (Homo sapiens) (UniProt Q9NYL2); conditions: Compound concentration 1.0 uM
[2] = molecular target: T1, Serine/threonine-protein kinase Chk1 (Homo sapiens) (UniProt O14757)
T1 sequence (whole entry): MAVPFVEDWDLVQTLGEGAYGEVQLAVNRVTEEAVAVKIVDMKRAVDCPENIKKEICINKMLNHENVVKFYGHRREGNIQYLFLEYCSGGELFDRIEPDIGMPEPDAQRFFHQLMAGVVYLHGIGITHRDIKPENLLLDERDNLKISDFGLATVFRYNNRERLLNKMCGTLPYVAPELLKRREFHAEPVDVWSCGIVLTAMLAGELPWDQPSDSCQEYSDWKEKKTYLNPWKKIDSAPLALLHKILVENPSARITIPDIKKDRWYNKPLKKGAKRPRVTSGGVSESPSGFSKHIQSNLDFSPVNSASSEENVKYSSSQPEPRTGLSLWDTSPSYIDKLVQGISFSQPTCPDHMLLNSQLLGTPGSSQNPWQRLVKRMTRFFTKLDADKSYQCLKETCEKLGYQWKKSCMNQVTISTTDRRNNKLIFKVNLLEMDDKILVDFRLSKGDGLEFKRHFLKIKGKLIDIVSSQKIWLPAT

[3] = molecular target: Ribosomal protein S6 kinase beta-2 (Homo sapiens) (UniProt Q9UBS0); experiment: RPS6KB2 (P70S6KB) Invitrogen Lab (UK) kinase screen (BI); conditions: Compound concentration 1.0 uM
Sequence of Ribosomal protein S6 kinase beta-2 (Homo sapiens) (Q9UBS0 whole entry): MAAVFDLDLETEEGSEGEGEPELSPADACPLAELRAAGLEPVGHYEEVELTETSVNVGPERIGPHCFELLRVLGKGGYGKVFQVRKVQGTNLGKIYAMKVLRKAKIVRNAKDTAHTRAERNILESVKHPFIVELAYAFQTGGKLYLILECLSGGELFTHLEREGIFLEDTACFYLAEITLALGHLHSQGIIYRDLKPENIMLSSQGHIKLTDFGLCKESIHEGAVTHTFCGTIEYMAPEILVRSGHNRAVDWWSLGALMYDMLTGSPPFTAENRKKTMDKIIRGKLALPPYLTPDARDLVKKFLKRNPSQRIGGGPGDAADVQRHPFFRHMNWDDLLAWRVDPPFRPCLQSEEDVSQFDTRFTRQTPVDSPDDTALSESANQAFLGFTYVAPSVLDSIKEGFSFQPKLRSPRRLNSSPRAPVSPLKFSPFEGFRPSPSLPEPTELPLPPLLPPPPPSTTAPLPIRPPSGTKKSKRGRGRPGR

[4] = molecular target: Cyclin-dependent kinase 2/cyclin A (Homo sapiens) (UniProt P24941+P20248+P78396); conditions: Compound concentration 1.0 uM
[5] = molecular target: Serine/threonine-protein kinase ICK (Homo sapiens) (UniProt Q9UPZ9); conditions: Compound concentration 1.0 uM
[6] = molecular target: Mitogen-activated protein kinase 1 (Homo sapiens) (UniProt P28482)
Sequence of Mitogen-activated protein kinase 1 (Homo sapiens) (P28482 whole entry, the tested form may be a part): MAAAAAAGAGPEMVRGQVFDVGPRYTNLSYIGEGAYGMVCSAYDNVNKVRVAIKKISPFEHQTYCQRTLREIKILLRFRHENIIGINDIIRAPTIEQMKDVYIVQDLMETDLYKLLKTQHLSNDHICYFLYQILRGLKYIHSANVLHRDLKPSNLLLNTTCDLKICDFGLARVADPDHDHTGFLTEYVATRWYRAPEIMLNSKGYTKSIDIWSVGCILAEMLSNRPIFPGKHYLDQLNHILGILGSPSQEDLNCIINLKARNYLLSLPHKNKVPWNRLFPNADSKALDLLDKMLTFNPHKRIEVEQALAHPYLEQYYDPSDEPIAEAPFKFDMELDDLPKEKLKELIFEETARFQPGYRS

[7] = molecular target: Phosphatidylinositol 4-phosphate 3-kinase C2 domain-containing subunit alpha (Homo sapiens) (UniProt O00443); conditions: Compound concentration 1.0 uM
Sequence of Phosphatidylinositol 4-phosphate 3-kinase C2 domain-containing subunit alpha (Homo sapiens) (O00443 whole entry, the tested form may be a part): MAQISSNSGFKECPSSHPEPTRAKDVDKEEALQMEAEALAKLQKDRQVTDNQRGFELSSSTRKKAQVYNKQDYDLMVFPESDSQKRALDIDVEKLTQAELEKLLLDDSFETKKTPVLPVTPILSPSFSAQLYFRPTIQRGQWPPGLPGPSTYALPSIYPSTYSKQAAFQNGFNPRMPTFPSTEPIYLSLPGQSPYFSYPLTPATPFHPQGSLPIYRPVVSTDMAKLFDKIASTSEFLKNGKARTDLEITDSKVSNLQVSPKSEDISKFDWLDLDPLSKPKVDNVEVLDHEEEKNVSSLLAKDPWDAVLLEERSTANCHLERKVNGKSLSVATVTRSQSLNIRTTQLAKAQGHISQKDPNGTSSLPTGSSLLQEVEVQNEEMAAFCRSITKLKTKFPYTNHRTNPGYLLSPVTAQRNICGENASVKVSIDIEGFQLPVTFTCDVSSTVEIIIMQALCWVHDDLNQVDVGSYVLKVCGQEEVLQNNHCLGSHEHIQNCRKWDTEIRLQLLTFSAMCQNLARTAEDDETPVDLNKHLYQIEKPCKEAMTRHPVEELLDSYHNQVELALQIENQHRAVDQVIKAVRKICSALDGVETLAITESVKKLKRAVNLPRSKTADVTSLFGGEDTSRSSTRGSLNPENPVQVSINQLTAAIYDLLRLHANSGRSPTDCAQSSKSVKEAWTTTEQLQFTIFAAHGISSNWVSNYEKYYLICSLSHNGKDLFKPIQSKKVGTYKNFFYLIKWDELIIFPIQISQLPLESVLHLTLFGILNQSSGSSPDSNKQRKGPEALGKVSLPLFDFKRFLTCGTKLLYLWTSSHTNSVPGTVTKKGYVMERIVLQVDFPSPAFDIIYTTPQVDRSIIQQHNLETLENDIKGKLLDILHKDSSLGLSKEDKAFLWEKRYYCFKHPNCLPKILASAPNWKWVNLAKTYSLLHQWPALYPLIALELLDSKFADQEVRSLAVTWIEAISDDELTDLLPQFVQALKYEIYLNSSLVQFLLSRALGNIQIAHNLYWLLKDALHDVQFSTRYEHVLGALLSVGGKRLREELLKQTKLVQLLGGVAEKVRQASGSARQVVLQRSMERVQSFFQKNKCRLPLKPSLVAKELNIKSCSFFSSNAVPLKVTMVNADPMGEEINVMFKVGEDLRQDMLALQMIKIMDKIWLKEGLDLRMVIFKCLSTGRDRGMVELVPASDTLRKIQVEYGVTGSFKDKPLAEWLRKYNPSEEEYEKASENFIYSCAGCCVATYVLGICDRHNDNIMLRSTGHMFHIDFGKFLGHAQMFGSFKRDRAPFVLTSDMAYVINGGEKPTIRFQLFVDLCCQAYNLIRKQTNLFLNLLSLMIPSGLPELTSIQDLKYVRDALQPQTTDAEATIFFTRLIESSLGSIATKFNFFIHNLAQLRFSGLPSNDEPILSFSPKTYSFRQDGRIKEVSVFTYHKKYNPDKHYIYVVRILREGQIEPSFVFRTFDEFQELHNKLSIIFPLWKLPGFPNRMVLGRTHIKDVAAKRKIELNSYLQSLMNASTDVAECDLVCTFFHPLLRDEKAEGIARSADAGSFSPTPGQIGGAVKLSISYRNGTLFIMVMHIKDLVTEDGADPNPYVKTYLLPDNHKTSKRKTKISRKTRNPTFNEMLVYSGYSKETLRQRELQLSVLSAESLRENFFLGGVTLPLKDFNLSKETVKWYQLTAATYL

[8] = molecular target: Serine/threonine-protein kinase ULK1 (Homo sapiens) (UniProt O75385); conditions: Compound concentration 1.0 uM
Sequence of Serine/threonine-protein kinase ULK1 (Homo sapiens) (O75385 whole entry): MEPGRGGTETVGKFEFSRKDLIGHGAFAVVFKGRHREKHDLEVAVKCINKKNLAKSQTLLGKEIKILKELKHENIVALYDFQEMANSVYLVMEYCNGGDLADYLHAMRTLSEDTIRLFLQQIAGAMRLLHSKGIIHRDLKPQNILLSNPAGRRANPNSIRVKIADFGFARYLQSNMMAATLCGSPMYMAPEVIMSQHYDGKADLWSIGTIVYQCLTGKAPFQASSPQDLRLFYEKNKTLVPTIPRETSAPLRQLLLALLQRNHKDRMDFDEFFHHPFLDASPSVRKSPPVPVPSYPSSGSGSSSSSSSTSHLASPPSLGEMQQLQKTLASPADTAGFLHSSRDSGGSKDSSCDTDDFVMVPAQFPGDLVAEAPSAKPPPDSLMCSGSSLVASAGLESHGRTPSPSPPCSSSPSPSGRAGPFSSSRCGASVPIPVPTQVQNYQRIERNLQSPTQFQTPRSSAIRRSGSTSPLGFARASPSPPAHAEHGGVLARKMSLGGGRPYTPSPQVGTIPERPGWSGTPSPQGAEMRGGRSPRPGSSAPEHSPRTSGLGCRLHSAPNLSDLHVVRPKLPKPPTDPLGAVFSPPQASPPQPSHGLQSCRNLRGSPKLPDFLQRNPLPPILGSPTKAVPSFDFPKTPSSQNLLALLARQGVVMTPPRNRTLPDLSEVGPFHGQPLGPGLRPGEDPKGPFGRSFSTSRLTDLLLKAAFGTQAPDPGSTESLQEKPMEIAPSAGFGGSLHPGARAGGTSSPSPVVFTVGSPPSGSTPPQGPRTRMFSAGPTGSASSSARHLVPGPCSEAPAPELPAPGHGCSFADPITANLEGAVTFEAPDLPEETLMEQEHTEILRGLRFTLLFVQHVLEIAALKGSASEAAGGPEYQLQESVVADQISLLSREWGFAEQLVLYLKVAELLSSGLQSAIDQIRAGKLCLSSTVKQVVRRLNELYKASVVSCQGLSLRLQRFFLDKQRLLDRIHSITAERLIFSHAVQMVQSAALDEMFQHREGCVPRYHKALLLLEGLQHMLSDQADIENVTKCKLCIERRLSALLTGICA

[9] = molecular target: Glycogen synthase kinase-3 beta (Homo sapiens) (UniProt P49841); experiment: GSK3B DUNDEE kinase screen (BI); conditions: Compound concentration 10.0 uM
Sequence of Glycogen synthase kinase-3 beta (Homo sapiens) (P49841 whole entry, looked up): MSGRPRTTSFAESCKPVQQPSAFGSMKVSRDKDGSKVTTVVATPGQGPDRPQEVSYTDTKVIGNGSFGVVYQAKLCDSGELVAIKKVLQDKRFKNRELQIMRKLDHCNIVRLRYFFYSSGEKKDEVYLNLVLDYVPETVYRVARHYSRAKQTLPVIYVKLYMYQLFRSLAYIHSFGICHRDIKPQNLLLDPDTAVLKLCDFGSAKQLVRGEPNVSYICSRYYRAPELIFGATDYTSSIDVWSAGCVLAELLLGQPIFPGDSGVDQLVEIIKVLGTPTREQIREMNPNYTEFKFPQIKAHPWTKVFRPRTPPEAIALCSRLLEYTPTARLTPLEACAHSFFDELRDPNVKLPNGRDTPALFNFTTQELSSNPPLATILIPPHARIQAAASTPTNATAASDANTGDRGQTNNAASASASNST

Measured: residual activity

Sequence of Mitogen-activated protein kinase kinase kinase 20 (Homo sapiens) (Q9NYL2 2-800 limits assumed): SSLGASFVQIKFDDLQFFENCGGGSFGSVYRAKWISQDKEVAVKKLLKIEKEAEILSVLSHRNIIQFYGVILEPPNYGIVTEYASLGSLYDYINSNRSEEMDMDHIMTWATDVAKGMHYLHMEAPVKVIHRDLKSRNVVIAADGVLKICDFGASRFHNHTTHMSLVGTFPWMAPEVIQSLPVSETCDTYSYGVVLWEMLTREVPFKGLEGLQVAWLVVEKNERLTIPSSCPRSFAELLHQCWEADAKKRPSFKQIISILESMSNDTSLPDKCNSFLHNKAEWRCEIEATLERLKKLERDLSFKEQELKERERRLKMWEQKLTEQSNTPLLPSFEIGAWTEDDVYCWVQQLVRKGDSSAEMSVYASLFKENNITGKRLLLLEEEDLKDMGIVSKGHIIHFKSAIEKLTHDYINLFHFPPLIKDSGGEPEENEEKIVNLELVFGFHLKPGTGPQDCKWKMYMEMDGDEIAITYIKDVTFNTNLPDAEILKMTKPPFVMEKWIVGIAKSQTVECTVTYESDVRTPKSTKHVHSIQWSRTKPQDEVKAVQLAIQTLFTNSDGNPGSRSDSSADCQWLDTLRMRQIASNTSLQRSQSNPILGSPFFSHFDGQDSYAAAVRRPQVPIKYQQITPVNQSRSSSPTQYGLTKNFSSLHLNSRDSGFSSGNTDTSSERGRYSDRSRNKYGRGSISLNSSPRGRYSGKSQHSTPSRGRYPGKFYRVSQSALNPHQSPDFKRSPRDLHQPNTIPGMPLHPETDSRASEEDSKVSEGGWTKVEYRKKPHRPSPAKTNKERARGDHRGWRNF

CCC(F)(F)c1cc(N2CCC(S(C)(=O)=O)CC2)nc2sc(C(N)=O)c(N)c12 [BI-605906]
inactive: [1] 97% | [2]; Compound concentration 1.0 uM 95% | [2]; Compound concentration 10.0 uM 89% | [3] 86% | [4] 90% | [5] 96% | [6]; Compound concentration 1.0 uM 92% | [6]; Compound concentration 10.0 uM 101% | [7] 97% | [8] 94% | [9] 74.4%
